Patent US20090209536A1, “AMINOQUINAZOLINE CANNABINOID RECEPTOR MODULATORS FOR TREATMENT OF DISEASE” (KALYPSYS, INC., priority 2007, published 2009)
Where two headings read alike, the source gives them in different places.

Key:
[1] = biological target: T1, human cannabinoid receptor type 2 (Homo sapiens, UniProt P34972); experiment: Human CB2 Radioligand Binding Assay; conditions: membranes from stably transfected CHO CB2 cells
T1 construct: expressed in transfected cells; membrane preparation
Protocol: 1. Human CB2 Radioligand Binding Assay
This receptor binding filtration assay measures the receptor-ligand interactions of compounds by measuring ability to compete with a radiolabeled control ligand. Reactions were performed in 96 deep-well plate (Costar 3961) with a final volume of 600 ul. Compounds were added to each well either in single point (10 uM final) or dose-response. Compounds were delivered in DMSO or further diluted in incubation buffer to a final assay DMSO concentration of 1%. Incubation buffer (50 mM Tris-HCl pH 7.4, 2.5 mM EGTA, 5 mM MgCl2, 5.0 mg/ml fatty acid free BSA) was added to each well. Following buffer addition, [^3H] CP-55,940 was added. Tritiated CP-55,940 (Perkin Elmer) was used at the Kd determined from prior saturation binding experiments conducted on each lot of membranes. Membrane preparations from stably transfected CHO CB2 cells were added and the reaction was incubated for 90 minutes at 30° C. Unifilter GF/C filtration plates (Perkin Elmer) were pre-wet with 0.05% polyethylenimine. Samples were transferred to Unifilter plates and separation of unbound radioligand was achieved using a vacuum manifold (Millipore). Following thorough washing with 5 ml/well ice-cold wash buffer (50 mM Tris-HCl pH 7.4, 2.5 mM EGTA, 5 mM MgCl2, 0.5 mg/ml fatty acid free BSA), filterplates were dried completely. Betaplate Scint Scintillation cocktail (25 ul, Perkin Elmer) was applied and plates were read using Microbeta Trilux (Wallac). Data analysis was performed in Spotfire. Activity of the positive control (100 nM CP-55,940) was set as 100% efficacy.
Stable recombinant Human CB2-CHO cell membranes were prepared as follows: Chinese Hamster Ovarian (CHO) cells stably expressing human cannabinoid receptor type 2 were grown to 90% confluence in 15×100 mm culture dishes under puromycin selection (5 ug/ml) Cells were harvested from culture flasks using a cell scraper, were washed once with cold phosphate-buffered saline (calcium and magnesium free) and pelleted by centrifugation at 400 g for 5 min at 4° C. Cell pellet was washed once with cold phosphate-buffered saline and centrifuged again at 400×g for 5 min at 4° C. The pellet was suspended in ice-cold lysis buffer (10 mM Tris-HCl, 0.1 mM EDTA, containing […], pH 7.5) and homogenized in a chilled 7 ml glass dounce homogenizer using 50 strokes. The homogenate was centrifuged at 400 g for 15 min at 4° C. The cloudy supernatant was collected and centrifuged at 41000 g for 30 min at 4° C. The resulting pellet was washed with ice-cold sucrose-free lysis buffer and centrifuged again at 41000 g for 30 min at 4° C. The membrane pellet was suspended in sucrose-free storage buffer (10 mm Tris-HCl, 0.1 mM EDTA, pH 7.5) to a concentration of 2-3 mg protein/ml. Aliquots were flash frozen in liquid nitrogen and stored at −80° C. Concentration was determined using Dc protein assay kit (Bio-Rad).

[2] = biological target: T2, human cannabinoid receptor type 1 (Homo sapiens, UniProt P21554); experiment: Human CB1 Radioligand Binding Assay (basis of selectivity, CB2 vs. CB1); conditions: CB1: HEK 293 EBNA cells expressing human CB1; CB2: CHO CB2 membranes
T2 construct: purchased Perkin Elmer RBHCB1M; host or cells: HEK 293 EBNA cells
Protocol: 2. Human CB1 Radioligand Binding Assay
The incubation buffer was composed of 50 mM Tris-HCl pH 7.4, 2.5 mM EDTA, 5 mM MgCl2, 5.0 mg/ml fatty acid free BSA and the wash buffer was composed of 50 mM Tris-HCl pH 7.4, 2.5 mM EDTA, 5 mM MgCl2, 0.5 mg/ml fatty acid free BSA.

[3] = competition with [3H] CP-55,940, read-out: CB2 Ligand Binding Asssay EC50

T2 sequence (P21554 whole entry): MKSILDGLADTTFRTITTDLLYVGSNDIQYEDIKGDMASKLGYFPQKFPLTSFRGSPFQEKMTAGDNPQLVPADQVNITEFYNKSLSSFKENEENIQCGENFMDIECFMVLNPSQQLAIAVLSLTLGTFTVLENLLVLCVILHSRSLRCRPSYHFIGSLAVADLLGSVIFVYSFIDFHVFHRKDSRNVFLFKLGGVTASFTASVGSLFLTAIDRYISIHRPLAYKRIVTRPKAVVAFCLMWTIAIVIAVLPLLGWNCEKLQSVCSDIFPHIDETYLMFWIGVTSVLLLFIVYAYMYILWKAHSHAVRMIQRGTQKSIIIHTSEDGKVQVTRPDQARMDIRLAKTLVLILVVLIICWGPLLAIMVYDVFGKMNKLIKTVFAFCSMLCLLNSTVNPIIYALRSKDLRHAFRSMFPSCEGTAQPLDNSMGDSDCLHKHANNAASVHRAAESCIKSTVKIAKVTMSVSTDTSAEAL
T1 sequence (P34972 whole entry): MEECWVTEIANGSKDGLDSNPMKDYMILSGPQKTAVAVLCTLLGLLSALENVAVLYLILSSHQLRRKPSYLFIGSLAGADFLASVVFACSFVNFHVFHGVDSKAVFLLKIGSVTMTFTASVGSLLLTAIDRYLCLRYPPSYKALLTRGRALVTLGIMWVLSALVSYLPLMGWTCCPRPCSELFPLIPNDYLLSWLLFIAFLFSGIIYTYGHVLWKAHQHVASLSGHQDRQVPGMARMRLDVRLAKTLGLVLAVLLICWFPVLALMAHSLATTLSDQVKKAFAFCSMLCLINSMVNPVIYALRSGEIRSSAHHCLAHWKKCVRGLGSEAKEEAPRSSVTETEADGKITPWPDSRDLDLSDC

Row | SMILES | EC50 [1, 3] [nM] | Selectivity, CB2 vs. CB1 [2] | EC50 ([1]; CB2 Ligand Binding Asssay EC50, competition with [3H] CP-55,940) [nM]
1 | CN1CCN(c2nc(CNS(=O)(=O)c3cccc4ccccc34)nc3ccccc23)CC1 [Example 5, N-((4-(4-Methylpiperazin-1-yl)quinazolin-2-yl)methyl)naphthalene-1-sulfonamide] | < 1000 | + (+ indicates > 10−fold) | –
2 | CN1CCN(c2nc(CNS(=O)(=O)c3ccc4ccccc4c3)nc3ccccc23)CC1 [Example 6, N-((4-(4-methylpiperazin-1-yl)quinazolin-2-yl)methyl)naphthalene-2-sulfonamide] | > 1000 | + (+ indicates > 10−fold) | –
3 | COC(=O)c1sccc1S(=O)(=O)NCc1nc(N2CCCC2)c2ccccc2n1 [Example 7, Methyl 3-(N-((4-(Pyrrolidin-1-yl)quinazolin-2-yl)methyl)sulfamoyl)thiophene-2-carboxylate] | < 1000 | + (+ indicates > 10−fold) | –
4 | CNC(=O)c1sccc1S(=O)(=O)NCc1nc(N2CCCC2)c2ccccc2n1 [Example 8, N-Methyl-3-(N-((4-(pyrrolidin-1-yl)quinazolin-2-yl)methyl)sulfamoyl)thiophene-2-carboxamide] | > 1000 | + (+ indicates > 10−fold) | –
5 | CCN(CC)CCNC(=O)c1sccc1S(=O)(=O)NCc1nc(N2CCCC2)c2ccccc2n1 [Example 9, N-(2-(Diethylamino)ethyl)-3-(N-((4-(pyrrolidin-1-yl)quinazolin-2-yl)methyl)sulfamoyl)thiophene-2-carboxamide] | > 1000 | − (− indicates ≦ 10−fold) | –
6 | O=C(NCc1nc(N2CCCC2)c2ccccc2n1)Nc1ccc(Cl)cc1Cl [Example 10, 1-(2,4-Dichlorophenyl)-3-((4-(pyrrolidin-1-yl)quinazolin-2-yl)methyl)urea] | > 1000 | + (+ indicates > 10−fold) | –
7 | O=C(NCc1nc(N2CCCC2)c2ccccc2n1)Nc1ccc(Cl)c(C(F)(F)F)c1 [Example 11, 1-(4-Chloro-3-(trifluoromethyl)phenyl)-3-((4-(pyrrolidin-1-yl)quinazolin-2-yl)methyl)urea] | > 1000 | − (− indicates ≦ 10−fold) | –
8 | O=C(NCc1nc(N2CCCC2)c2ccccc2n1)c1ccc(Cl)cc1 [Example 12, 4-Chloro-N-((4-(pyrrolidin-1-yl)quinazolin-2-yl)methyl)benzamide] | > 1000 | − (− indicates ≦ 10−fold) | –
9 | Fc1ccc(-c2nc(N3CCCC3)c3ccccc3n2)cc1F [Example 13, 2-(3,4-Difluorophenyl)-4-(pyrrolidin-1-yl)quinazoline] | < 1000 | − (− indicates ≦ 10−fold) | –
10 | Fc1ccc(-c2nc(N3CCCCC3)c3ccccc3n2)cc1F [Example 15, 2-(3,4-difluorophenyl)-4-(piperidin-1-yl)quinazoline] | < 1000 | − (− indicates ≦ 10−fold) | –
11 | Fc1ccc(-c2nc(N3CCOCC3)c3ccccc3n2)cc1F [Example 16, 4-(2-(3,4-difluorophenyl)quinazolin-4-yl)morpholine] | > 1000 | − (− indicates ≦ 10−fold) | –
12 | CN(Cc1ccccc1)c1nc(-c2ccc(F)c(F)c2)nc2ccccc12 [Example 17, N-benzyl-2-(3,4-difluorophenyl)-N-methylquinazolin-4-amine] | > 1000 | − (− indicates ≦ 10−fold) | –
13 | CN1CCN(c2nc(-c3ccc(F)c(F)c3)nc3ccccc23)CC1 [Example 18, 2-(3,4-Difluorophenyl)-4-(4-methylpiperazin-1-yl)quinazoline] | < 1000 | + (+ indicates > 10−fold) | –
14 | CC(=O)N1CCN(c2nc(-c3ccc(F)c(F)c3)nc3ccccc23)CC1 [Example 19, 1-(4-(2-(3,4-Difluorophenyl)quinazolin-4-yl)piperazin-1-yl)ethanone] | < 1000 | + (+ indicates > 10−fold) | –
15 | CC(C)(C)c1ccc(Nc2nc(-c3ccc(F)c(F)c3)nc3ccccc23)cc1 [Example 20, N-(4-tert-Butylphenyl)-2-(3,4-difluorophenyl)quinazolin-4-amine] | < 1000 | + (+ indicates > 10−fold) | –
16 | CN(c1ccc(C(C)(C)C)cc1)c1nc(-c2ccc(F)c(F)c2)nc2ccccc12 [Example 21, N-(4-tert-Butylphenyl)-2-(3,4-difluorophenyl)-N-methylquinazolin-4-amine] | > 1000 | − (− indicates ≦ 10−fold) | –
17 | Fc1ccc(-c2nc(N3CCCC3)c3ccccc3n2)c(F)c1 [Example 22, 2-(2,4-Difluorophenyl)-4-(pyrrolidin-1-yl)quinazoline] | < 1000 | − (− indicates ≦ 10−fold) | –
18 | Fc1ccc(-c2nc(N3CCCCC3)c3ccccc3n2)c(F)c1 [Example 23, 2-(2,4-Difluorophenyl)-4-(piperidin-1-yl)quinazoline] | > 1000 | − (− indicates ≦ 10−fold) | –
19 | CC(=O)N1CCN(c2nc(-c3ccc(F)cc3F)nc3ccccc23)CC1 [Example 24, 1-(4-(2-(2,4-Difluorophenyl)quinazolin-4-yl)piperazin-1-yl)ethanone] | < 1000 | − (− indicates ≦ 10−fold) | –
20 | Fc1ccc(-c2nc(N3CCOCC3)c3ccccc3n2)c(F)c1 [Example 25, 4-(2-(2,4-Difluorophenyl)quinazolin-4-yl)morpholine] | > 1000 | − (− indicates ≦ 10−fold) | –
21 | CN(Cc1ccccc1)c1nc(-c2ccc(F)cc2F)nc2ccccc12 [Example 26, Benzyl[2-(2,4-difluorophenyl)quinazolin-4-yl]methylamine] | > 1000 | − (− indicates ≦ 10−fold) | –
22 | CN1CCN(c2nc(-c3ccc(F)cc3F)nc3ccccc23)CC1 [Example 27, 2-(2,4-Difluorophenyl)-4-(4-methylpiperazin-1-yl)quinazoline] | < 1000 | − (− indicates ≦ 10−fold) | –
23 | Clc1ccc(-c2nc(N3CCCC3)c3ccccc3n2)c(Cl)c1 [Example 28, 2-(2,4-Dichlorophenyl)-4-pyrrolidin-1-ylquinazoline] | > 1000 | + (+ indicates > 10−fold) | –
24 | Clc1ccc(-c2nc(N3CCCCC3)c3ccccc3n2)c(Cl)c1 [Example 29, 2-(2,4-Dichlorophenyl)-4-piperidin-1-ylquinazoline] | < 1000 | + (+ indicates > 10−fold) | –
25 | Clc1ccc(-c2nc(NCC3CC3)c3ccccc3n2)c(Cl)c1 [Example 30, Cyclopropylmethyl[2-(2,4-dichlorophenyl)quinazolin-4-yl]amine] | – | + (+ indicates > 10−fold) | > 1000
26 | Clc1ccc(-c2nc(NCc3ccccc3)c3ccccc3n2)c(Cl)c1 [Example 31, Benzyl[2-(2,4-dichlorophenyl)quinazolin-4-yl]amine] | > 1000 | − (− indicates ≦ 10−fold) | –
27 | CN(Cc1ccccc1)c1nc(-c2ccc(Cl)cc2Cl)nc2ccccc12 [Example 32, N-Benzyl-2-(2,4-dichlorophenyl)-N-methylquinazolin-4-amine] | > 1000 | − (− indicates ≦ 10−fold) | –
28 | CN1CCN(c2nc(C3CCCCC3)nc3ccccc23)CC1 [Example 33, 2-Cyclohexyl-4-(4-methylpiperazin-1-yl)quinazoline] | < 1000 | − (− indicates ≦ 10−fold) | –
29 | c1ccc2c(N3CCCCC3)nc(C3CCCCC3)nc2c1 [Example 34, 2-Cyclohexyl-4-(piperidin-1-yl)quinazolines] | < 1000 | − (− indicates ≦ 10−fold) | –
